ChEMBL document CHEMBL1629662, “Antimicrobial activity of prulifloxacin tested against a worldwide collection of gastroenteritis-producing pathogens, including those causing traveler's diarrhea” (2009)
Converted amounts (≈) assume the structure as drawn.

Assays:
Aeromonas caviae [1] = assay: Antibacterial activity against Aeromonas caviae assessed as percent resistant isolates by broth microdilution method; format: functional
Aeromonas sobria = assay: Antibacterial activity against Aeromonas sobria by broth microdilution method; format: functional
Vibrio sp. [2] = assay: Antibacterial activity against Vibrio sp. assessed as growth inhibition at 0.016 ug/ml by broth microdilution method; format: functional
[3] = system: Yersinia pseudotuberculosis; assay: Antibacterial activity against Yersinia pseudotuberculosis by broth microdilution method; format: functional
Salmonella sp. [4] = assay: Antibacterial activity against Salmonella sp. assessed as growth inhibition at 0.03 ug/ml by broth microdilution method; format: functional
Shigella sp. [5] = assay: Antibacterial activity against Shigella sp. assessed as growth inhibition at 0.008 ug/ml by broth microdilution method; format: functional
Escherichia coli [6] = assay: Antibacterial activity against enteroaggregative Escherichia coli assessed as percent resistant isolates by broth microdilution method; format: functional
Aeromonas sp. [7] = assay: Antibacterial activity against Aeromonas sp. assessed as growth inhibition at 1 ug/ml by broth microdilution method; format: functional
Escherichia coli [8] = assay: Antibacterial activity against Escherichia coli assessed as growth inhibition at 0.06 ug/ml by broth microdilution method; format: functional
Aeromonas sp. [9] = assay: Antibacterial activity against Aeromonas sp. assessed as growth inhibition at 0.25 ug/ml by broth microdilution method; format: functional
Vibrio vulnificus = assay: Antibacterial activity against Vibrio vulnificus assessed as percent susceptible isolates by broth microdilution method; format: functional
Vibrio fluvialis [10] = assay: Antibacterial activity against Vibrio fluvialis by broth microdilution method; format: functional
Plesiomonas shigelloides [11] = assay: Antibacterial activity against Plesiomonas shigelloides assessed as growth inhibition at 0.004 ug/ml by broth microdilution method; format: functional
Escherichia coli [12] = assay: Antibacterial activity against Escherichia coli assessed as growth inhibition at 0.03 ug/ml by broth microdilution method; format: functional
Shigella flexneri = assay: Antibacterial activity against Shigella flexneri by broth microdilution method; format: functional
[13] = Antibacterial activity against Salmonella enterica serovar Heidelberg by broth microdilution method; format: functional, Salmonella enterica subsp. enterica serovar Heidelberg
Salmonella sp. [14] = assay: Antibacterial activity against Salmonella sp. assessed as growth inhibition at 0.016 ug/ml by broth microdilution method; format: functional
Escherichia coli [15] = assay: microbe, parasite or virus in culture; format: functional
Escherichia coli [16] = assay: Antibacterial activity against blood-borne Escherichia coli assessed as percent susceptible isolates by broth microdilution method; format: functional
Shigella sp. [17] = assay: Antibacterial activity against Shigella sp. assessed as growth inhibition at 0.06 ug/ml by broth microdilution method; format: functional
Vibrio fluvialis [18] = assay: Antibacterial activity against Vibrio fluvialis assessed as percent susceptible isolates by broth microdilution method; format: functional
Salmonella sp. [19] = assay: Antibacterial activity against Salmonella sp. assessed as growth inhibition at 0.008 ug/ml by broth microdilution method; format: functional
Vibrio sp. [20] = assay: Antibacterial activity against Vibrio sp. assessed as percent resistant isolates by broth microdilution method; format: functional
Escherichia coli [21] = assay: Antibacterial activity against Escherichia coli assessed as growth inhibition at 1 ug/ml by broth microdilution method; format: functional
[22] = system: Yersinia pseudotuberculosis; assay: Antibacterial activity against Yersinia pseudotuberculosis assessed as percent susceptible isolates by broth microdilution method; format: functional
Vibrio cholerae [23] = assay: Antibacterial activity against Vibrio cholerae by broth microdilution method; format: functional
Vibrio cholerae [24] = assay: Antibacterial activity against Vibrio cholerae assessed as percent susceptible isolates by broth microdilution method; format: functional
Aeromonas caviae [25] = assay: Antibacterial activity against Aeromonas caviae by broth microdilution method; format: functional
Campylobacter sp. [26] = assay: Antibacterial activity against Campylobacter sp. assessed as growth inhibition at 0.06 ug/ml by broth microdilution method; format: functional
Escherichia coli [27] = assay: Antibacterial activity against enteropathogenic Escherichia coli by broth microdilution method; format: functional
Escherichia coli [28] = assay: Antibacterial activity against enterotoxigenic Escherichia coli assessed as percent susceptible isolates by broth microdilution method; format: functional
Salmonella sp. [29] = assay: Antibacterial activity against Salmonella sp. assessed as growth inhibition at 0.004 ug/ml by broth microdilution method; format: functional
Shigella dysenteriae = assay: Antibacterial activity against Shigella dysenteriae assessed as percent susceptible isolates by broth microdilution method; format: functional
Escherichia coli [30] = assay: Antibacterial activity against enterotoxigenic Escherichia coli by broth microdilution method; format: functional
Escherichia coli [31] = assay: Antibacterial activity against Escherichia coli assessed as growth inhibition at 0.25 ug/ml by broth microdilution method; format: functional
Campylobacter sp. [32] = assay: Antibacterial activity against Campylobacter sp. assessed as growth inhibition at 0.03 ug/ml by broth microdilution method; format: functional
Escherichia coli [33] = assay: Antibacterial activity against Escherichia coli by broth microdilution method; format: functional
Vibrio parahaemolyticus = assay: Antibacterial activity against Vibrio parahaemolyticus by broth microdilution method; format: functional
Shigella sp. [34] = assay: Antibacterial activity against Shigella sp. assessed as growth inhibition at =<0.002 ug/ml by broth microdilution method; format: functional
Escherichia coli [35] = assay: Antibacterial activity against Escherichia coli assessed as growth inhibition at 0.004 ug/ml by broth microdilution method; format: functional
Campylobacter sp. [36] = assay: Antibacterial activity against Campylobacter sp. assessed as growth inhibition at 0.008 ug/ml by broth microdilution method; format: functional
Campylobacter jejuni = assay: Antibacterial activity against Campylobacter jejuni assessed as percent resistant isolates by broth microdilution method; format: functional; conditions: pooled result: one value given for 2 cell lines, strains, targets or settings
Vibrio alginolyticus = assay: Antibacterial activity against Vibrio alginolyticus assessed as percent susceptible isolates by broth microdilution method; format: functional
Escherichia coli [37] = assay: Antibacterial activity against Escherichia coli assessed as percent resistant isolates by broth microdilution method; format: functional
Aeromonas sp. [38] = assay: Antibacterial activity against Aeromonas sp. assessed as growth inhibition at 0.03 ug/ml by broth microdilution method; format: functional
Plesiomonas shigelloides [39] = assay: Antibacterial activity against Plesiomonas shigelloides by broth microdilution method; format: functional
Escherichia coli [40] = assay: Antibacterial activity against Escherichia coli assessed as growth inhibition at =>4 ug/ml by broth microdilution method; format: functional
Plesiomonas shigelloides [41] = assay: Antibacterial activity against Plesiomonas shigelloides assessed as percent resistant isolates by broth microdilution method; format: functional
Plesiomonas shigelloides [42] = assay: Antibacterial activity against Plesiomonas shigelloides assessed as percent susceptible isolates by broth microdilution method; format: functional
Yersinia enterocolitica = assay: Antibacterial activity against Yersinia enterocolitica assessed as percent resistant isolates by broth microdilution method; format: functional
Salmonella sp. [43] = assay: Antibacterial activity against Salmonella sp. assessed as growth inhibition at =<0.002 ug/ml by broth microdilution method; format: functional
[44] = Escherichia coli, read-out: MIC50
[45] = Escherichia coli, read-out: MIC90

## CC1Sc2c(C(=O)O)c(=O)c3cc(F)c(N4CCNCC4)cc3n21 (centres undefined) [ULIFLOXACIN]
Aeromonas caviae [1]
  Activity: 2%
Aeromonas sobria
  MIC50: 4 ng/mL (≈ 0.0114 µM)
  MIC90: 60 ng/mL (≈ 0.172 µM)
Vibrio sp. [2]
  inhibition at 0.016 µg/mL: 65%
[3]
  MIC: 8 ng/mL (≈ 0.0229 µM)
  MIC50: 8 ng/mL (≈ 0.0229 µM)
  MIC90: 16 ng/mL (≈ 0.0458 µM)
Salmonella sp. [4]
  inhibition at 0.03 µg/mL: 91%
Shigella sp. [5]
  inhibition at 0.008 µg/mL: 95%
Escherichia coli [6]
  Activity: 0%
Aeromonas sp. [7]
  inhibition at 1 µg/mL: 98%
Escherichia coli [8]
  inhibition at 0.06 µg/mL: 97%
Aeromonas sp. [9]
  inhibition at 0.25 µg/mL: 95%
Vibrio vulnificus
  Activity: 100%
Vibrio fluvialis [10]
  MIC50: 16 ng/mL (≈ 0.0458 µM)
  MIC90: 30 ng/mL (≈ 0.0859 µM)
Plesiomonas shigelloides [11]
  inhibition at 0.004 µg/mL: 75%
Escherichia coli [12]
  inhibition at 0.03 µg/mL: 96%
Shigella flexneri
  MIC50: 4 ng/mL (≈ 0.0114 µM)
  MIC90: 8 ng/mL (≈ 0.0229 µM)
[13]
  MIC50: 8 ng/mL (≈ 0.0229 µM)
  MIC90: 30 ng/mL (≈ 0.0859 µM)
Salmonella sp. [14]
  inhibition at 0.016 µg/mL: 85%
Escherichia coli [15]
  MIC50: 8 ng/mL (≈ 0.0229 µM)
  MIC90: 8 ng/mL (≈ 0.0229 µM)
Escherichia coli [15]; [44]
  MIC50: 8 ng/mL (≈ 0.0229 µM)
Escherichia coli [15]; [45]
  MIC90: 8 ng/mL (≈ 0.0229 µM)
Escherichia coli [16]
  Activity: 90%
Shigella sp. [17]
  inhibition at 0.06 µg/mL: 99%
Vibrio fluvialis [18]
  Activity: 100%
Salmonella sp. [19]
  inhibition at 0.008 µg/mL: 65%
Vibrio sp. [20]
  Activity: 0%
Escherichia coli [21]
  inhibition at 1 µg/mL: 97%
[22]
  Activity: 100%
Vibrio cholerae [23]
  MIC50: 16 ng/mL (≈ 0.0458 µM)
  MIC90: 30 ng/mL (≈ 0.0859 µM)
Vibrio cholerae [24]
  Activity: 100%
Aeromonas caviae [25]
  MIC50: 4 ng/mL (≈ 0.0114 µM)
  MIC90: 60 ng/mL (≈ 0.172 µM)
Campylobacter sp. [26]
  inhibition at 0.06 µg/mL: 77%
Escherichia coli [27]
  MIC: 4 ng/mL (≈ 0.0114 µM)
  MIC50: 8 ng/mL (≈ 0.0229 µM)
  MIC90: 8 ng/mL (≈ 0.0229 µM)
Escherichia coli [27]; [44]
  MIC50: 8 ng/mL (≈ 0.0229 µM)
Escherichia coli [27]; [45]
  MIC90: 8 ng/mL (≈ 0.0229 µM)
Escherichia coli [28]
  Activity: 100%
Salmonella sp. [29]
  inhibition at 0.004 µg/mL: 10%
Shigella dysenteriae
  Activity: 100%
Escherichia coli [30]
  MIC: 4 ng/mL (≈ 0.0114 µM)
  MIC50: 4 ng/mL (≈ 0.0114 µM)
  MIC90: 8 ng/mL (≈ 0.0229 µM)
Escherichia coli [30]; Escherichia coli, read-out: MIC
  MIC: 4 ng/mL (≈ 0.0114 µM)
Escherichia coli [30]; [44]
  MIC50: 4 ng/mL (≈ 0.0114 µM)
Escherichia coli [30]; [45]
  MIC90: 8 ng/mL (≈ 0.0229 µM)
Escherichia coli [31]
  inhibition at 0.25 µg/mL: 97%
Campylobacter sp. [32]
  inhibition at 0.03 µg/mL: 61%
Escherichia coli [33]
  MIC50: 8 ng/mL (≈ 0.0229 µM)
  MIC90: 8 ng/mL (≈ 0.0229 µM)
Vibrio parahaemolyticus
  MIC50: 16 ng/mL (≈ 0.0458 µM)
  MIC90: 30 ng/mL (≈ 0.0859 µM)
Shigella sp. [34]
  inhibition (INH): 1%
Escherichia coli [35]
  inhibition at 0.004 µg/mL: 27%
Campylobacter sp. [36]
  inhibition at 0.008 µg/mL: 2%
Campylobacter jejuni
  Activity: 14.7%
Vibrio alginolyticus
  Activity: 100%
Escherichia coli [37]
  Activity: 3%
Aeromonas sp. [38]
  inhibition at 0.03 µg/mL: 87%
Plesiomonas shigelloides [39]
  MIC: 4 ng/mL (≈ 0.0114 µM)
  MIC50: 4 ng/mL (≈ 0.0114 µM)
Escherichia coli [40]
  inhibition (INH): 100%
Plesiomonas shigelloides [41]
  Activity: 0%
Plesiomonas shigelloides [42]
  Activity: 100%
Yersinia enterocolitica
  Activity: 0%
Salmonella sp. [43]
  inhibition (INH): 1%
